Columns and labels:
[1] = test system: HepG2; assay: Cancer cell growth inhibition, HepG2; assay type: cell-based; conditions: Homo sapiens; Liver, HepG2, cell viability, 72 h
Experimental: (§1) Cell culture-based assays were used to evaluate the ability of compounds of the invention to inhibit cancer cell growth inhibition.
(§2) Cells were obtained from the American Type Culture Collection (ATCC) and European Collection of Cell Cultures (ECACC).
(§3) Cells were thawed in their appropriate media plus supplements (see table below). Cells were passaged at confluence by washing once in HBSS cation-free followed by a 3 minutes incubation with trypsin ([0.5 μg/ml]/EDTA [0.2 μg/ml]) (Gibco-BRL, 15400054) solution in HBSS at 37° C. (except non-adherent cell lines), and transferred to their appropriate media plus supplements. Prior to seeding at defined cell concentration, cells were recovered in medium, centrifuged and taken up in medium, and counted. […]
(§4) Dose-response curves were generated by serial dilutions (1:1) of the compounds. […] Plates were incubated 72 h, and living cell number was determined by AlamarBlue® and Hexosaminidase test. […] AlamarBlue® assay: plates were incubated 72 h and living cell number was determined by AlamarBlue (Biosource DAL1100). After 4 h incubation at 37° C., relative fluorescent intensity, which correlates with the number of living cells, was read in a Cytofluor plate reader (Millipore) at 535/590 nm (Excitation/emission). The hexosaminidase activity was measured according to the following protocol: the media was removed and cells were washed once with PBS. […]

[2] = test system: U-373MG; assay: Cancer cell growth inhibition, U-373MG; assay type: cell-based; conditions: Homo sapiens, U373 MG, Brain, cell viability, 72 h
Experimental: as §1, §2
(§5) Cells were thawed in their appropriate media plus supplements (see table below). Cells were passaged at confluence by washing once in HBSS cation-free followed by a 3 minutes incubation with trypsin ([0.5 μg/ml]/EDTA [0.2 μg/ml]) (Gibco-BRL, 15400054) solution in HBSS at 37° C. (except non-adherent cell lines), and transferred to their appropriate media plus supplements. Prior to seeding at defined cell concentration, cells were recovered in medium, centrifuged and taken up in medium, and counted.
(§6) Cells were plated at 3000/5000/10000 cells/well in 100 μl media in tissue culture 96 well plates (Cultek). After 24 h, media was supplemented by 100 μl/well of diluted IPDNs at 100 μM.
(§7) The Hexosaminidase assay was used for the adherent cell lines, whereas the AlamarBlue® assay was used for the non-adherent cell lines.
(§8) Dose-response curves were generated by serial dilutions (1:1) of the compounds. […] Reagent blanks, containing media plus colorimetric reagent without cells were run on each plate. Blank values were subtracted from test values and were routinely 5-10% of uninhibited control values. Plates were incubated 72 h, and living cell number was determined by AlamarBlue® and Hexosaminidase test. The advantages of using those assays are that both can be done in the same microwell plate. AlamarBlue® assay: plates were incubated 72 h and living cell number was determined by AlamarBlue (Biosource DAL1100). After 4 h incubation at 37° C., relative fluorescent intensity, which correlates with the number of living cells, was read in a Cytofluor plate reader (Millipore) at 535/590 nm (Excitation/emission). The hexosaminidase activity was measured according to the following protocol: the media was removed and cells were washed once with PBS. […]

[3] = test system: Colo205; assay: Cancer cell growth inhibition, Colo205; assay type: cell-based; conditions: Homo sapiens, COLO 205; Colorectal, Colo205, cell viability, 72 h
Experimental: as §1, §2, §5, §6, §7, §8

[4] = test system: SK-BR-3; assay: Cancer cell growth inhibition, SK-BR-3; assay type: cell-based; conditions: Homo sapiens; Breast, SK-BR-3, cell viability, 72 h
Experimental: as §1, §2, §5, §6, §7, §8

[5] = test system: Panc-1; assay: Cancer cell growth inhibition, Panc-1; assay type: cell-based; conditions: Homo sapiens; Pancreatic, Panc-1, cell viability, 72 h
Experimental: as §1, §2, §5, §6, §7
(§9) Dose-response curves were generated by serial dilutions (1:1) of the compounds. […] Reagent blanks, containing media plus colorimetric reagent without cells were run on each plate. Blank values were subtracted from test values and were routinely 5-10% of uninhibited control values. Plates were incubated 72 h, and living cell number was determined by AlamarBlue® and Hexosaminidase test. The advantages of using those assays are that both can be done in the same microwell plate. AlamarBlue® assay: plates were incubated 72 h and living cell number was determined by AlamarBlue (Biosource DAL1100). After 4 h incubation at 37° C., relative fluorescent intensity, which correlates with the number of living cells, was read in a Cytofluor plate reader (Millipore) at 535/590 nm (Excitation/emission). The hexosaminidase activity was measured according to the following protocol: the media was removed and cells were washed once with PBS.
(§10) Data analysis was done by calculating the percentage of cell viability normalized in front of negative control values, which were considered as a 100%. The curve was adjusted using a sigmoidal dose-response (variable slope) equation and EC50 values were obtained from the equation
(§11) where, X is the logarithm of concentration. Y is the response. Bottom is the Y value at the bottom plateau Top is the Y value at the top plateau LogEC50 is the X value when the response is halfway between Bottom and Top. With different kinds of variables, this variable is sometimes called ED50 (effective dose, 50%), or IC50 (inhibitory concentration, 50%, used when the curve goes downhill).

[6] = test system: NCI-H1975; assay: Cancer cell growth inhibition, NCI-H1975; assay type: cell-based; conditions: Homo sapiens; Lung, NCI-H1975, cell viability, 72 h
Experimental: as §1, §2, §5, §6, §7, §9, §10, §11

[7] = test system: SW-480; assay: Cancer cell growth inhibition, SW-480; assay type: cell-based; conditions: Homo sapiens, SW480; Colorectal, SW-480, cell viability, 72 h
Experimental: as §1, §2, §3, §4

[8] = test system: BT474; assay: Cancer cell growth inhibition, BT474; assay type: cell-based; conditions: Homo sapiens, BT-474; Breast, BT474, cell viability, 72 h
Experimental: as §1, §2, §3, §4

[9] = test system: MDA-MB-468; assay: Cancer cell growth inhibition, MDA-MB-468; assay type: cell-based; conditions: Homo sapiens; Breast, MDA-MB-468, cell viability, 72 h
Experimental: as §1, §2, §5, §6, §7, §8

[10] = molecular target: T1, Human DNMT1 (Homo sapiens, UniProt P26358); assay: DNMT1 enzymatic activity inhibition, radioisotope-based 3H-SAM filter binding assay; assay type: biochemical; conditions: 1 μM SAM, 25 nM DNMT1, 0.005 mg/ml Poly(dI-dC), 30° C. 1 hour, 10-dose
T1 construct: a-a 2-1632, with N-terminal GST tag; GST (N)
T1 sequence (P26358 2-1632 isoform P26358-2): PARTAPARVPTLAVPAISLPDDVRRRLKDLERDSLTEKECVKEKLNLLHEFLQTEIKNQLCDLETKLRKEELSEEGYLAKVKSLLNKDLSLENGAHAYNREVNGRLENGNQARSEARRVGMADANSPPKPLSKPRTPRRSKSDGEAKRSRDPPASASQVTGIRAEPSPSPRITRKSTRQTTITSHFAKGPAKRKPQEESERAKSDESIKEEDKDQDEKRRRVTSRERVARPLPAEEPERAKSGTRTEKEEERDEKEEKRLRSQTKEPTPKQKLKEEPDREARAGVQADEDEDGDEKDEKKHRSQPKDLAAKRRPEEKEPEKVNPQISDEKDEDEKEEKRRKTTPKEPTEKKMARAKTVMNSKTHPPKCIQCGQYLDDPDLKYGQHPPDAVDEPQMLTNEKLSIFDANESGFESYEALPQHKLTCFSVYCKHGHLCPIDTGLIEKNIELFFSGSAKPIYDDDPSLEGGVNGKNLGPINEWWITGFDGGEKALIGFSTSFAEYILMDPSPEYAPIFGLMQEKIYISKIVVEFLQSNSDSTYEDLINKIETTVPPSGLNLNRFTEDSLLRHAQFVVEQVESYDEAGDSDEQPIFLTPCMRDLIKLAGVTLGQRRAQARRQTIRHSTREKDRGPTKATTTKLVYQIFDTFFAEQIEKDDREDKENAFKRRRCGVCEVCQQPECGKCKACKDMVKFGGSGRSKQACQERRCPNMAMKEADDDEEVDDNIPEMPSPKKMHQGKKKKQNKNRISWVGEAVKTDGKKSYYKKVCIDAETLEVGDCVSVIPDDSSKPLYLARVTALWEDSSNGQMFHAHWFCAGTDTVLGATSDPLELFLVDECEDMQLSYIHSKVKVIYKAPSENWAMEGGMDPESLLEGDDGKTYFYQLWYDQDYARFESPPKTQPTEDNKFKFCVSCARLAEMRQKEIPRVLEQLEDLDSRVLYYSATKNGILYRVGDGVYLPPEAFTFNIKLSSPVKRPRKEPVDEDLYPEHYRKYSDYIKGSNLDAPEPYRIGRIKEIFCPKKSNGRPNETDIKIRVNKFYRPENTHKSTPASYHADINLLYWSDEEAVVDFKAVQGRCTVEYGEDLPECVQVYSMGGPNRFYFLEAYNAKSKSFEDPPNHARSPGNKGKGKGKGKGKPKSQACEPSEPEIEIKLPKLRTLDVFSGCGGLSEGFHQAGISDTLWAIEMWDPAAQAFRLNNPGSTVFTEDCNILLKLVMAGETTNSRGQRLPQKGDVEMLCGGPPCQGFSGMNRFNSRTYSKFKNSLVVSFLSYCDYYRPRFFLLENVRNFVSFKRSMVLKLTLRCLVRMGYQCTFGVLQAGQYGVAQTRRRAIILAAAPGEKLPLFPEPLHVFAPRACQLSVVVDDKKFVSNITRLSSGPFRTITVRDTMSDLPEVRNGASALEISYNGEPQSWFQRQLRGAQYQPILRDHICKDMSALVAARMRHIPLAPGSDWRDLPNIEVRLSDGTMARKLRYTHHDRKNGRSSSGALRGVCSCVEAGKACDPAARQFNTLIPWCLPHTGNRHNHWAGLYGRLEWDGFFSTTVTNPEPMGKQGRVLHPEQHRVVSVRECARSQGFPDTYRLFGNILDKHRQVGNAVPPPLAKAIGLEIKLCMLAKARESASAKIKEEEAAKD
Experimental: The inhibition of the enzymatic activity of DNMT1 was tested using low volume radioisotope-based assay which uses tritium-labeled AdoMet (^3H-SAM) as a methyl donor. Inhibitors diluted in DMSO were added by using acoustic technology (Echo550, Labcyte Inc. Sunnyvale, Calif.) into enzyme/substrate mixture in nano-liter range. The reaction was initiated by the addition of ^3H-SAM, and incubated at 30° C. for 1 hour. Total final methylations on the substrate poly(dI-dC) were detected by a filter binding approach. Data analysis was performed using GraphPad Prism software (La Jolla, Calif.) for IC50 curve fits.

[11] = test system: T47D; assay: Cancer cell growth inhibition, T47D; assay type: cell-based; conditions: Homo sapiens, Breast, cell viability, 72 h
Experimental: as §1, §2, §5, §6, §7, §9, §10, §11

[12] = test system: NCI-H1650; assay: Cancer cell growth inhibition, NCI-H1650; assay type: cell-based; conditions: Homo sapiens; Lung, NCI-H1650, cell viability, 72 h
Experimental: as §1, §2, §5, §6, §7, §8

[13] = test system: HeLa; assay: Cancer cell growth inhibition, HeLa; assay type: cell-based; conditions: Homo sapiens, Cervical, cell viability, 72 h
Experimental: as §1, §2, §5, §6, §7, §8

[14] = test system: RCC-7860; assay: Cancer cell growth inhibition, RCC-7860; assay type: cell-based; conditions: Renal, RCC-7860, cell viability, 72 h
Experimental: as §1, §2, §3, §4

[15] = test system: 143B; assay: Cancer cell growth inhibition, 143B; assay type: cell-based; conditions: Homo sapiens, Osteosarcoma, cell viability, 72 h
Experimental: as §1, §2, §5, §6, §7, §9, §10, §11

[16] = test system: MDA-MB-231; assay: Cancer cell growth inhibition, MDA-MB-231; assay type: cell-based; conditions: Homo sapiens; Breast, MDA-MB-231, cell viability, 72 h
Experimental: as §1, §2, §3, §4

[17] = test system: LS174T; assay: Cancer cell growth inhibition, LS174T; assay type: cell-based; conditions: Homo sapiens, Colorectal, cell viability, 72 h
Experimental: as §1, §2, §3, §4

SMILES	EC50 [1]	EC50 [2]	EC50 [3]	EC50 [4]	EC50 [5]	EC50 [6]	EC50 [7]	EC50 [8]	EC50 [9]	IC50 [10]	EC50 [11]	EC50 [12]	EC50 [13]	EC50 [14]	EC50 [15]	EC50 [16]	EC50 [17]
COc1cc(OC)c2c(-c3ccc(O)cc3)cn(CC(=O)c3ccc(O)cc3)c2c1 [Example 6, 1-(4-hydroxyphenyl)-2-[3-(4-hydroxyphenyl)-4,6-dimethoxy-1H-indol-1-yl]ethanone]	19 µM	8.1 µM	16 µM	3.8 µM	15 µM	9.2 µM	94 µM	50 µM	6.1 µM	27.9 µM	11 µM	11 µM	6.9 µM	12 µM	19 µM	13 µM	–
O=C(Cn1cc(-c2ccc(O)cc2)c2c(F)cc(F)cc21)c1ccc(O)cc1 [Example 16, 2-[4,6-difluoro-3-(4-hydroxyphenyl)-1H-indol-1-yl]-1-(4-hydroxyphenyl) ethanone]	44 µM	–	31 µM	59 µM	–	–	–	–	74 µM	22.5 µM	31 µM	76 µM	68 µM	–	31 µM	–	88 µM

Source: patent publication US20150336889A1, “INDOLE DERIVATIVES, PHARMACEUTICAL COMPOSITIONS CONTAINING SUCH INDOLES AND THEIR USE AS DNA METHYLATION MODULATORS” (IKERCHEM, S.L., priority 2012, published 2015)
